Results published in patent publication US20240100170A1, “CYCLIC-AMP RESPONSE ELEMENT BINDING PROTEIN (CBP) AND/OR ADENOVIRAL E1A BINDING PROTEIN OF 300 KDA (P300) DEGRADATION COMPOUNDS AND METHODS OF USE” (CULLGEN (SHANGHAI), INC., priority 2020, published 2024).
Like-named read-outs stand apart in the source and are kept apart here.

Tests used:
P300 = P300 (Homo sapiens, UniProt Q09472); test: percentage of inhibition (degradation) of p300 at 10 nM, Tables 2-4; type: cell-based; design: LNCaP or 22RV1 cells that express CBP/P300 proteins were treated with GNE-781 or the bivalent compounds; endogenous in cells; host or cells: LNCaP or 22RV1 (not given); details: for inhibition at 0.01 µM: read-out: Degradation (10 nM)
Protocol: Cultured cells or tissue chunks were washed with cold PBS once and lysed in cold RIPA buffer supplemented with protease inhibitors and phosphatase inhibitors (Beyotime Biotechnology). The solutions were then incubated at 4° C. for 30 minutes with gentle agitation to fully lyse cells. Cell lysates were centrifuged at 13,000 rpm for 10 minutes at 4° C. and pellets were discarded. Total protein concentrations in the lysates were determined by BCA assays (Beyotime Biotechnology). Cell lysates were mixed with Laemmli loading buffer to 1 X and heated at 99° C. for 5 min. Proteins were resolved on SDS-PAGE and visualized by chemiluminescence. Images were taken by a ChemiDoc MP Imaging system (Bio-Rad). Protein bands were quantitated using the accompanied software provided by Bio-Rad.

[1] = tested on: LNCaP prostate cancer cell; test: LNCaP cell viability (CellTiter-Glo); type: cell-based; details: Homo sapiens, 72 h, LNCaP cell viability, 3 days, CellTiter-Glo
Protocol: LNCaP cells seeded in 96-well plates were treated with 10 μM GNE-781 or selected bivalent compounds, i.e. P-001, P-002, and P-019, following a 12-point 3-fold serial dilution. Three days after treatment, cell viability was determined using the CellTiter-Glo kit (Promega) following manufacturer's instructions. Cell viability was normalized to the mean values of 3 replicates of untreated cells. Dose-dependent response was analyzed following the least-squares non-linear regression method using the GraphPad Prism 5.0 software.
LNCaP (clone FGC), 22RV1 and other cells were cultured at 37° C. with 5% CO 2 in RPMI 1640 Medium supplemented with 10% fetal bovine serum. Cells were authenticated using the short tandem repeat (STR) assays. Mycoplasma test results were negative.
Cells were seeded at a density of 5000 cells per well in 96-well assay plates and treated with test compounds following a 12-point 3-fold serial dilution. Three days later, cell viability was determined using the CellTiter-Glo assay kit according to the manufactureR's instructions. The dose-response curves were determined and IC50 values were calculated using the GraphPad Prism software following a nonlinear regression (least squares fit) method.

Chain of P300 (Q09472 whole entry): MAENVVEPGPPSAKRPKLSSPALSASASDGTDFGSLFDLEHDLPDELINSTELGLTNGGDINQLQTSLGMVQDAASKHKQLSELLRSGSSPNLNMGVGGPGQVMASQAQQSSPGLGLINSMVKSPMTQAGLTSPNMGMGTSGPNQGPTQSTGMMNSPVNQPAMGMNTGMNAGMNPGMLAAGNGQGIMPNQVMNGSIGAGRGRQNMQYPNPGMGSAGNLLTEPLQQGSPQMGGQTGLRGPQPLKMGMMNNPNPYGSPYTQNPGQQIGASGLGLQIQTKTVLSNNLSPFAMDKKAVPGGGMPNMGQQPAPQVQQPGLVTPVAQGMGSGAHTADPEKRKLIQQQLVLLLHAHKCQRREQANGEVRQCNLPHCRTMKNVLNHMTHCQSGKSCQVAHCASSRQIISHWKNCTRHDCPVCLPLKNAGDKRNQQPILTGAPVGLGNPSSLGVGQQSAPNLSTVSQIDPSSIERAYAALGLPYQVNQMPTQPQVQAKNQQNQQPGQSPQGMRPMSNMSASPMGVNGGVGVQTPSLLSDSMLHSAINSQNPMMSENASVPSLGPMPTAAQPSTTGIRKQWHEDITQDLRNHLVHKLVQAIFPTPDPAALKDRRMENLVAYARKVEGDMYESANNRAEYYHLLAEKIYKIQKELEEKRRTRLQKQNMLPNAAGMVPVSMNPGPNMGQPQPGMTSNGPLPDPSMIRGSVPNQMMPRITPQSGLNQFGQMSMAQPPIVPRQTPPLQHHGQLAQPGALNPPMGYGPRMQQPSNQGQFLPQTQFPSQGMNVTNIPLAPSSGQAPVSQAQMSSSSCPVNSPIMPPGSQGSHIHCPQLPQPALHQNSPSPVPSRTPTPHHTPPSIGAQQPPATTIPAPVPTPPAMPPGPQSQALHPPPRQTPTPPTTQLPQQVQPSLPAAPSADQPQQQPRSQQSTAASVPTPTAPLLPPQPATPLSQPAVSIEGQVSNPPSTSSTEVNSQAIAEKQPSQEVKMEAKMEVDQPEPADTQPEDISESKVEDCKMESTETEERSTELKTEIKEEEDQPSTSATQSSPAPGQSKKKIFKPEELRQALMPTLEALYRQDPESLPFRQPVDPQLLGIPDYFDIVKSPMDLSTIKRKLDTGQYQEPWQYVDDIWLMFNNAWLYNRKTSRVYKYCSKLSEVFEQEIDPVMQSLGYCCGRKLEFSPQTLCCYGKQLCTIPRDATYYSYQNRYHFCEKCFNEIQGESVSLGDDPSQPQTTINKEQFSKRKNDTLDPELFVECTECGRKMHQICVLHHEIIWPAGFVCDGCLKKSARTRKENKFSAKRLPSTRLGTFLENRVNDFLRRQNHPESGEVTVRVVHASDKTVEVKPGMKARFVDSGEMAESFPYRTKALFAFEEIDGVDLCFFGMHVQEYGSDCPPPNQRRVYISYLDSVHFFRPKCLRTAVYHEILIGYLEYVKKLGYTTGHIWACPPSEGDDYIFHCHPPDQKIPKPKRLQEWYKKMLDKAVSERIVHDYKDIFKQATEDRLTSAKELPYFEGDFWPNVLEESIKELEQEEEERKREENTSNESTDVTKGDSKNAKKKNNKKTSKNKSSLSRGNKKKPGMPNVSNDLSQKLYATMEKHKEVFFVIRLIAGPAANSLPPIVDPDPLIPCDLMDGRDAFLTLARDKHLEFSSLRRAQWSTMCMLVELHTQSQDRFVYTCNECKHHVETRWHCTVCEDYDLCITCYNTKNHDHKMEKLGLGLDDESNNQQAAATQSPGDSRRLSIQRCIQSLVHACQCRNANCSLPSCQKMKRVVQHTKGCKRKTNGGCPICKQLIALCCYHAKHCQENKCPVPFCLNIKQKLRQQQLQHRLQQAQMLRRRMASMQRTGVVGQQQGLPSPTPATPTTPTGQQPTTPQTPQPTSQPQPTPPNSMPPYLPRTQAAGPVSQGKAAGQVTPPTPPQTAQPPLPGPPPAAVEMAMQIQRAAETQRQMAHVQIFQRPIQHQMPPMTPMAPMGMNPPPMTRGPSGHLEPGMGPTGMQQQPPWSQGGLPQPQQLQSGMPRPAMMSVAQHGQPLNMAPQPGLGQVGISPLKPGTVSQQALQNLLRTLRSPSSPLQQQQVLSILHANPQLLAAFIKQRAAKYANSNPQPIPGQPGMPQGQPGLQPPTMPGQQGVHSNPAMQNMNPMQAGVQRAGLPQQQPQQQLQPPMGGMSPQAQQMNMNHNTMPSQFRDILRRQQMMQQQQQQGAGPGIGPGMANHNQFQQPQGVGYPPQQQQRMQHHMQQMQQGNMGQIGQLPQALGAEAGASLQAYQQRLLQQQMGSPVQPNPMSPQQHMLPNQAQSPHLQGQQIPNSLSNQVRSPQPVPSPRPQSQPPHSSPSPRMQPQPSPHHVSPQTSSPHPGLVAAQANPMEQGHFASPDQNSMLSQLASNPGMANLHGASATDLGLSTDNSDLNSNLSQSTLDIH

Row | SMILES | IC50 ([1]; Table 3) [nM] | Degradation (10 nM) (P300; p300, 10 nM, Table 3) | IC50 ([1]; Table 4) [nM] | further results
1 | CNC(=O)N1CCc2c(c(N3CCCc4cc(-c5cnn(CC(=O)NCCOCCC(=O)N[C@H](C(=O)N6C[C@H](O)C[C@H]6C(=O)NCc6ccc(-c7scnc7C)cc6)C(C)(C)C)c5)c(C(F)F)cc43)nn2C2CCOCC2)C1 [P-074, 3-(7-(difluoromethyl)-6-(1-(2-((2-(3-(((S)-1-((2S,4R)-4-hydroxy-2-((4-(4-methylthiazol-5-yl)benzyl)carbamoyl)pyrrolidin-1-yl)-3,3-dimethyl-1-oxobutan-2-yl)amino)-3-oxopropoxy)ethyl)amino)-2-oxoethyl)-1H-pyrazol-4-yl)-3,4-dihydroquinolin-1(2H)-yl)-N-methyl-1-(tetrahydro-2H-pyran-4-yl)-1,4,6,7-tetrahydro-5H-pyrazolo[4,3-c]pyridine-5-carboxamide] | > 10000 |  |  | inhibition at 0.01 µM (P300; p300, 10 nM, Table 3): < 20%
2 | CNC(=O)N1CCc2c(c(N3CCCc4cc(-c5cnn(C)c5)c(C(F)F)cc43)nn2C2CCN(C(=O)CCCCCCn3c(=O)n(C4CCC(=O)NC4=O)c4ccccc43)CC2)C1 (stereo not shown) [P-106, 3-(7-(difluoromethyl)-6-(1-methyl-1H-pyrazol-4-yl)-3,4-dihydroquinolin-1(2H)-yl)-1-(1-(7-(3-(2,6-dioxopiperidin-3-yl)-2-oxo-2,3-dihydro-1H-benzo[d]imidazol-1-yl)heptanoyl)piperidin-4-yl)-N-methyl-1,4,6,7-tetrahydro-5H-pyrazolo[4,3-c]pyridine-5-carboxamide] | 24.2 | B (B: 50% ≤ Degradation < 80%) |  | 
3 | CC(=O)N1CCc2c(c(N3CCCc4cc(-c5cnn(C)c5)c(C(F)F)cc43)nn2C2CCN(C(=O)CCCCCn3c(=O)n(C4CCC(=O)NC4=O)c4ccccc43)CC2)C1 (stereo not shown) [P-107, 3-(3-(6-(4-(5-acetyl-3-(7-(difluoromethyl)-6-(1-methyl-1H-pyrazol-4-yl)-3,4-dihydroquinolin-1(2H)-yl)-4,5,6,7-tetrahydro-1H-pyrazolo[4,3-c]pyridin-1-yl)piperidin-1-yl)-6-oxohexyl)-2-oxo-2,3-dihydro-1H-benzo[d]imidazol-1-yl)piperidine-2,6-dione] | 20.4 | B (B: 50% ≤ Degradation < 80%) |  | 
4 | CC(=O)N1CCc2c(c(N3CCCc4cc(-c5cnn(C)c5)c(C(F)F)cc43)nn2C2CCN(C(=O)CCCCCCCn3c(=O)n(C4CCC(=O)NC4=O)c4ccccc43)CC2)C1 (stereo not shown) [P-135, 3-(3-(8-(4-(5-acetyl-3-(7-(difluoromethyl)-6-(1-methyl-1H-pyrazol-4-yl)-3,4-dihydroquinolin-1(2H)-yl)-4,5,6,7-tetrahydro-1H-pyrazolo[4,3-c]pyridin-1-yl)piperidin-1-yl)-8-oxooctyl)-2-oxo-2,3-dihydro-1H-benzo[d]imidazol-1-yl)piperidine-2,6-dione] | 0.7 | A (A: Degradation ≥ 80%) |  | 
5 | CC(=O)N1CCc2c(c(N3CCCc4cc(-c5cnn(C)c5)c(C(F)F)cc43)nn2C2CCN(CCN3CCC(CNc4cccc5c4C(=O)N(C4CCC(=O)NC4=O)C5=O)CC3)CC2)C1 (stereo not shown) [P-143, 4-(((1-(2-(4-(5-acetyl-3-(7-(difluoromethyl)-6-(1-methyl-1H-pyrazol-4-yl)-3,4-dihydroquinolin-1(2H)-yl)-4,5,6,7-tetrahydro-1H-pyrazolo[4,3-c]pyridin-1-yl)piperidin-1-yl)ethyl)piperidin-4-yl)methyl)amino)-2-(2,6-dioxopiperidin-3-yl)isoindoline-1,3-dione] | 1.5 | A (A: Degradation ≥ 80%) |  | 
6 | CC(=O)N1CCc2c(c(N3CCCc4cc(-c5cnn(C)c5)c(C(F)F)cc43)nn2C2CCN(C(=O)CCCCCCCCn3c(=O)n(C4CCC(=O)NC4=O)c4ccccc43)CC2)C1 (stereo not shown) [P-163, 3-(3-(9-(4-(5-acetyl-3-(7-(difluoromethyl)-6-(1-methyl-1H-pyrazol-4-yl)-3,4-dihydroquinolin-1(2H)-yl)-4,5,6,7-tetrahydro-1H-pyrazolo[4,3-c]pyridin-1-yl)piperidin-1-yl)-9-oxononyl)-2-oxo-2,3-dihydro-1H-benzo[d]imidazol-1-yl)piperidine-2,6-dione] | 0.9 | A (A: Degradation ≥ 80%) |  | 
7 | CC(=O)N1CCc2c(c(N3CCCc4cc(-c5cnn(C)c5)c(C(F)F)cc43)nn2C2CCN(CCN3CCC(COc4cccc5c4C(=O)N(C4CCC(=O)NC4=O)C5=O)CC3)CC2)C1 (stereo not shown) [P-167, 4-((1-(2-(4-(5-acetyl-3-(7-(difluoromethyl)-6-(1-methyl-1H-pyrazol-4-yl)-3,4-dihydroquinolin-1(2H)-yl)-4,5,6,7-tetrahydro-1H-pyrazolo[4,3-c]pyridin-1-yl)piperidin-1-yl)ethyl)piperidin-4-yl)methoxy)-2-(2,6-dioxopiperidin-3-yl)isoindoline-1,3-dione] | 92 | D (D: Degradation < 20%) |  | 
8 | CC(=O)N1CCc2c(c(N3CCCc4cc(-c5cnn(C)c5)c(C(F)F)cc43)nn2C2CCN(CCN3CCC(C4CN(c5cccc6c5C(=O)N(C5CCC(=O)NC5=O)C6=O)C4)CC3)CC2)C1 (stereo not shown) [P-187, 4-(3-(1-(2-(4-(5-acetyl-3-(7-(difluoromethyl)-6-(1-methyl-1H-pyrazol-4-yl)-3,4-dihydroquinolin-1(2H)-yl)-4,5,6,7-tetrahydro-1H-pyrazolo[4,3-c]pyridin-1-yl)piperidin-1-yl)ethyl)piperidin-4-yl)azetidin-1-yl)-2-(2,6-dioxopiperidin-3-yl)isoindoline-1,3-dione] |  |  | 2.3 | inhibition at 0.01 µM (P300): > 80%
9 | CC(=O)N1CCc2c(c(N3CCCc4cc(-c5cnn(C)c5)c(C(F)F)cc43)nn2C2CCN(CCN3CCC(CCNc4cccc5c4C(=O)N(C4CCC(=O)NC4=O)C5=O)CC3)CC2)C1 (stereo not shown) [P-188, 4-((2-(1-(2-(4-(5-acetyl-3-(7-(difluoromethyl)-6-(1-methyl-1H-pyrazol-4-yl)-3,4-dihydroquinolin-1(2H)-yl)-4,5,6,7-tetrahydro-1H-pyrazolo[4,3-c]pyridin-1-yl)piperidin-1-yl)ethyl)piperidin-4-yl)ethyl)amino)-2-(2,6-dioxopiperidin-3-yl)isoindoline-1,3-dione] |  |  | 2.3 | inhibition at 0.01 µM (P300): > 80%
10 | CC(=O)N1CCc2c(c(N3CCCc4cc(-c5cnn(C)c5)c(C(F)F)cc43)nn2C2CCN(CCN3CCOC(COc4cccc5c4C(=O)N(C4CCC(=O)NC4=O)C5=O)C3)CC2)C1 (stereo not shown) [P-189, 4-((4-(2-(4-(5-acetyl-3-(7-(difluoromethyl)-6-(1-methyl-1H-pyrazol-4-yl)-3,4-dihydroquinolin-1(2H)-yl)-4,5,6,7-tetrahydro-1H-pyrazolo[4,3-c]pyridin-1-yl)piperidin-1-yl)ethyl)morpholin-2-yl)methoxy)-2-(2,6-dioxopiperidin-3-yl)isoindoline-1,3-dione] |  |  | 38 | inhibition at 0.01 µM (P300): > 80%
11 | CC(=O)N1CCc2c(c(N3CCCc4cc(-c5cnn(C)c5)c(C(F)F)cc43)nn2C2CCN(CCCN3CCC(CCc4cccc5c4C(=O)N(C4CCC(=O)NC4=O)C5=O)CC3)CC2)C1 (stereo not shown) [P-190, 4-(2-(1-(3-(4-(5-acetyl-3-(7-(difluoromethyl)-6-(1-methyl-1H-pyrazol-4-yl)-3,4-dihydroquinolin-1(2H)-yl)-4,5,6,7-tetrahydro-1H-pyrazolo[4,3-c]pyridin-1-yl)piperidin-1-yl)propyl)piperidin-4-yl)ethyl)-2-(2,6-dioxopiperidin-3-yl)isoindoline-1,3-dione] |  |  | 41.4 | inhibition at 0.01 µM (P300; p300, 10 nM, Table 4): 50 to 80%
